Results reported in patent US20260216121A1, “3AH-CYCLOPENTA[B]BENZOFURAN-3A-YL AS RAS INHIBITORS” (SJP BIOTEC GMBH, priority 2023, published 2026).
Where two headings read alike, the source gives them in different places.

Legend:
iv (intravenous) PK = type: in vivo; conditions: for AUCinf(h*nM) Free / C average (nM) free / Cmax (nM), Free / AUC(0-inf) / Cmax / half-life: 2 mg/kg; for AUCinf(h*nM) Free / C average (nM) free / Cmax (nM), Free / half-life: i.v.; for Unbound clearance: Table 4, other values of the table equal the 2 mg/kg i.v. data; for AUC(0-inf) / Cmax / half-life: in vivo, iv; for half-life: read-out: T½ (converted)
Description: (§1) After administration, a certain amount of drug is in the blood or plasma. Of the total amount in the blood or plasma, some is bound to proteins (or other species in the blood or plasma). Only unbound drug is available e.g., for drug-target interactions. Therefore, the higher the unbound fraction that is available in the blood or plasma, the more is available for binding the drug to a target. The less unbound drug is available in the blood or plasma e.g., because it is involved in competitive binding to, for example, albumin, the less is available for desired drug-target interaction. The protocol for determining the unbound fraction and pharmacokinetics is routine practice and known to the skilled person.

NRAS G12V = target: T1, NRAS G12V (Homo sapiens, UniProt P01111, G12V); assay: NanoBiT assay for RAS GTP-loading (LgBit-NRAS G12V / SmBit-CRAF-RBD) in HeLa cells; type: cell-based
T1 construct: expressed in transfected cells; host or cells: HeLa
Description: (§2) NanoBiT assay for the RAS GTP-loading was performed in HeLa cells transfected with LgBit-K, N and HRAS G12V and SmBit-CRAF-RBD. Cells were treated with compounds 1 or C-1 for 2 h in serum-free DMEM (Dulbecco's modified Eagle's Medium). After incubation, the substrate for NanoLuc was added, and the luminescence was measured using a multiplate reader. Data were normalized to cells transfected with the indicated mutant and exposed to DMSO for 2 h. DMSO-treated cells were set as 1. The results shown are mean from 3 independent experiments.
(§3) HeLa cells were harvested with 0.05% Trypsin/0.02% EDTA in PBS and seeded in 6 well or 12 well cell culture plates at the concentration of 5×10^4 cells in complete DMEM (2 ml for 6 well plate and 1 ml for 12 well plate). After 1 day from seeding, the DNA were transfected with Flag tagged Ras or NanoBiT plasmid using PEI/PBS solution.
(§4) The plasmids were transfected to HeLa cells and the cells were harvested after 1 day of transfection. The cells were seeded to 96 well white plate. Next day, the medium was changed to serum free DMEM for 2 h with compounds. After incubation, Nano Glo assay was performed. The luminescence was measured using Tecan SPARKS (Tecan). IC50 calculations by non-linear regression were conducted with GraphPad Prism 9.

ASPC1 = assay: MTT assay for cell viability, ASPC1; type: cell-based; conditions: Homo sapiens, 48 h, mean from 3 independent experiments
Description: (§5) Cells with RAS mutations were treated with compounds 1 and C-1 for 48 h and cell viability was evaluated by MTT assay. The results shown are mean from 3 independent experiments.
(§6) HCT-116 were authenticated by Eurofin genomics and cultured in DMEM (10% heat inactivated FBS). sNF96.2 were purchased from ATCC and cultured in DMEM (10% heat inactivated FBS+1 mM Na Pyruvate). ASPC-1 cells were purchased from DSMZ and cultured in RPMI-1640 (10% heat inactivated FBS). NCI-H358 were purchased from ATCC and cultured in RPMI-1640 (10% heat inactivated FBS). T24 and HCT-116 cells were cultured in Mccoy's 5A medium (10% heat inactivated FBS). HT-1080 cells were cultured in EMEM (10% heat inactivated FBS+1 mM Na Pyruvate).
(§7) Cancer cells were seeded in 96 well plates (5×10^3 cells/well) in 80 μl in growth medium and cultured for 1 day in the incubator. Next day, 20 μl of compounds containing growth medium was added to each well and the cells were cultured for 48 h. After incubation with compounds, 10 μl of MTT solution was added to the wells and incubated for 2-4 hours. After incubation with MTT, solubilization buffer was added and incubated over night. MTT was measured at O.D. 570 nm with a plate reader (Tecan). IC50 calculations by non-linear regression were conducted with GraphPad Prism 9.

oral PK = type: in vivo; conditions: for AUC(0-inf) / Cmax / average free concentration at 24 h / half-life: in vivo; for average free concentration at 24 h: read-out: C average (nM) free; for half-life: read-out: T½ (converted)
Description: as §1

H358 = assay: MTT assay for cell viability, H358; type: cell-based; conditions: Homo sapiens, NCI-H358, 48 h, mean from 3 independent experiments
Description: as §5, §6, §7

sNF96.2 = assay: MTT assay for cell viability, sNF96.2; type: cell-based; conditions: 48 h, mean from 3 independent experiments
Description: as §5, §6, §7

HCT-116 = assay: MTT assay for cell viability, HCT-116; type: cell-based; conditions: Homo sapiens, 48 h, mean from 3 independent experiments
Description: as §5, §6, §7

HRAS G12V = target: T2, HRAS G12V (Homo sapiens, UniProt P01112, G12V); assay: NanoBiT assay for RAS GTP-loading (LgBit-HRAS G12V / SmBit-CRAF-RBD) in HeLa cells; type: cell-based
T2 construct: expressed in transfected cells; host or cells: HeLa
Description: as §2, §3, §4

HT-1080 = assay: MTT assay for cell viability, HT-1080; type: cell-based; conditions: Homo sapiens, 48 h, mean from 3 independent experiments
Description: as §5, §6, §7

[1] = Unbound fraction in human plasma (equilibrium dialysis); type: in vitro ADME; conditions: pH 7.4, dialysis 4 hours at 37 °C
Description: as §1
HT-Dialysis plates (Model HTD 96 b, Cat #1006) and the dialysis membrane (molecular weight cut off 12-14 KDa, Cat #1101) were purchased from HT Dialysis LLC (Gales Ferry, CT).
Dialysis Buffer (100 mM sodium phosphate and 150 mM NaCl, pH 7.4±0.1)
Stop Solution (Acetonitrile containing tolbutamide at 200 ng/mL, labetalol at 200 ng/mL)
On the day of experiment, the plasma was thawed under running cold tap water and centrifuged at 3220×g for 5 min to remove any clots. The pH value was checked and recorded. […]
The dialysis membrane was pretreated according to the manufacturer's instructions: the dialysis membrane strips were soaked in ultra-pure water at room temperature for approximately 1 hr. Afterwards, each membrane strip that contains 2 membranes was separated and soaked in ethanol:water (20:80 v:v) for approximately 20 min, after which it was ready for use or was stored in the solution at 2-8° C. for up to 1 month. […]
The % Unbound, % Bound and % Recovery were calculated using the following equations:
[formula] […] [formula] • F=Free compound concentration as determined by the calculated concentration on the buffer side of the membrane • T=Total compound concentration as determined by the calculated concentration on the matrix side of the membrane • T0=Total compound concentration as determined by the calculated concentration in matrix before dialysis

T24 = assay: MTT assay for cell viability, T24; type: cell-based; conditions: Homo sapiens, T-24, 48 h, mean from 3 independent experiments
Description: as §5, §6, §7

KRAS G12V = target: T3, KRAS G12V (Homo sapiens, UniProt P01116, G12V); assay: NanoBiT assay for RAS GTP-loading (LgBit-KRAS G12V / SmBit-CRAF-RBD) in HeLa cells; type: cell-based
T3 construct: expressed in transfected cells; host or cells: HeLa
Description: as §2, §3, §4

[2] = IC50 (nM, KRAS G12V), as listed in the PK tables 1-4, assay not named

T3 sequence (P01116 1-186 isoform P01116-2 G12V limits assumed): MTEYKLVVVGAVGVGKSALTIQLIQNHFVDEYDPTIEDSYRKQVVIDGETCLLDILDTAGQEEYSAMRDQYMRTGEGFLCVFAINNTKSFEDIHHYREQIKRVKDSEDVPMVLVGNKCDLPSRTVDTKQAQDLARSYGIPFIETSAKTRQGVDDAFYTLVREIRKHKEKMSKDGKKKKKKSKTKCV
T2 sequence (P01112 1-186 G12V limits assumed): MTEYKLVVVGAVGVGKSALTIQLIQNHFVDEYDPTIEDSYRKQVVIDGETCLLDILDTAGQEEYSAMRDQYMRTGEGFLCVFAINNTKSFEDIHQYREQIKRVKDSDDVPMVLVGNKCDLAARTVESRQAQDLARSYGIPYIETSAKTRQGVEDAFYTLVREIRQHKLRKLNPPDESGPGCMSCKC
T1 sequence (P01111 1-186 G12V limits assumed): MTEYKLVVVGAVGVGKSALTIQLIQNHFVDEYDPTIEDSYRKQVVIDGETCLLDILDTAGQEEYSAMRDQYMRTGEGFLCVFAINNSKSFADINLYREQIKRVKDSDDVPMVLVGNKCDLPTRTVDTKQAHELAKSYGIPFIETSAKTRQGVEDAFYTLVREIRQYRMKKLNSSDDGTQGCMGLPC

COc1cc(OC)c2c(c1)O[C@@]1(c3ccc(Cl)cc3)[C@H](c3ccccc3)C[C@@H](O)[C@@]21O [Compound C-1, (1R,3S,3aR,8bS)-3a-(4-chlorophenyl)-6,8-dimethoxy-3-phenyl-1,2,3,3a-tetrahydro-8bH-cyclopenta[b]benzofuran-1,8b-diol, reference compound]
AUCinf(h*nM) Free (iv (intravenous) PK): 7.9 nM·h | C average (nM) free (iv (intravenous) PK): 0.3 nM | Cmax (nM), Free (iv (intravenous) PK): 14.5 nM | Unbound clearance (iv (intravenous) PK): 581.38 L/h/kg | AUC(0-inf) (iv (intravenous) PK): 0.9 µM·h | Cmax (iv (intravenous) PK): 1700 nM | half-life (iv (intravenous) PK): 1.3 h | IC50 (NRAS G12V; NanoBiT, HeLa cells, 2 h in serum-free DMEM, read-out: IC50 (nM) NRAS G12V): 61.4 nM | IC50 (ASPC1): 26.6 nM | AUCinf(h*nM) Free (oral PK; 10 mg/kg): 4.9 nM·h | Cmax (nM), Free (oral PK; 10 mg/kg): 2.3 nM | AUCinf(h*nM) Free (oral PK; 50 mg/kg): 109.8 nM·h | Cmax (nM), Free (oral PK; 50 mg/kg): 34.3 nM | AUC(0-inf) (oral PK; 10 mg/kg): 0.6 µM·h | Cmax (oral PK; 10 mg/kg): 300 nM | average free concentration at 24 h (oral PK; 10 mg/kg): 0.2 nM | half-life (oral PK; 10 mg/kg): 1.7 h | AUC(0-inf) (oral PK; 50 mg/kg): 12.6 µM·h | Cmax (oral PK; 50 mg/kg): 3900 nM | average free concentration at 24 h (oral PK; 50 mg/kg): 4.6 nM | half-life (oral PK; 50 mg/kg): 2.7 h | IC50 (H358): 40 nM | IC50 (sNF96.2): 7.22 nM | IC50 (HCT-116): 21.9 nM | IC50 (HRAS G12V; NanoBiT, HeLa cells, 2 h in serum-free DMEM, read-out: IC50 (nM) HRAS G12V): 53.5 nM | IC50 (HT-1080): 18 nM | fraction unbound at 4 h, 2 µM [1]: 0.009 | IC50 (T24): 28.5 nM | IC50 (KRAS G12V; NanoBiT, HeLa cells, 2 h in serum-free DMEM, read-out: IC50 (nM) KRAS G12V): 56.6 nM | IC50 (KRAS G12V; as listed in the PK tables 1-4, assay not named, read-out: IC50 (nM, KRAS G12V)): 29 nM

COc1cc(OC)c2c(c1)O[C@@]1(c3ccc(C#N)cc3)[C@H](c3ccccc3)C[C@@H](O)[C@@]21O (single isomer, unassigned) [Compound 2]
AUCinf(h*nM) Free (iv (intravenous) PK): 51.8 nM·h | C average (nM) free (iv (intravenous) PK): 2.2 nM | Cmax (nM), Free (iv (intravenous) PK): 43.7 nM | Unbound clearance (iv (intravenous) PK): 94.854 L/h/kg | AUC(0-inf) (iv (intravenous) PK): 2.1 µM·h | Cmax (iv (intravenous) PK): 1700 nM | half-life (iv (intravenous) PK): 4 h | AUCinf(h*nM) Free (oral PK; 10 mg/kg): 26.6 nM·h | Cmax (nM), Free (oral PK; 10 mg/kg): 21.4 nM | AUC(0-inf) (oral PK; 10 mg/kg): 1.1 µM·h | Cmax (oral PK; 10 mg/kg): 900 nM | average free concentration at 24 h (oral PK; 10 mg/kg): 1.1 nM | half-life (oral PK; 10 mg/kg): 1.3 h | fraction unbound at 4 h, 2 µM [1]: 0.025 | IC50 (KRAS G12V; [2]): 5.4 nM

COc1cc(OC)c2c(c1)O[C@@]1(c3ccc(C#N)cc3)[C@H](c3cccc(F)c3)C[C@@H](O)[C@@]21O (single isomer, unassigned) [Compound 1]
AUCinf(h*nM) Free (iv (intravenous) PK): 19.8 nM·h | C average (nM) free (iv (intravenous) PK): 0.8 nM | Cmax (nM), Free (iv (intravenous) PK): 30.4 nM | Unbound clearance (iv (intravenous) PK): 221 L/h/kg | AUC(0-inf) (iv (intravenous) PK): 0.8 µM·h | Cmax (iv (intravenous) PK): 1200 nM | half-life (iv (intravenous) PK): 0.9 h | IC50 (NRAS G12V): 20.2 nM | IC50 (ASPC1): 11.9 nM | AUCinf(h*nM) Free (oral PK; 50 mg/kg): 378.6 nM·h | Cmax (nM), Free (oral PK; 50 mg/kg): 105.3 nM | AUC(0-inf) (oral PK; 50 mg/kg): 14.6 µM·h | Cmax (oral PK; 50 mg/kg): 4100 nM | average free concentration at 24 h (oral PK; 50 mg/kg): 15.8 nM | half-life (oral PK; 50 mg/kg): 3.5 h | IC50 (H358): 15.6 nM | IC50 (sNF96.2): 3.69 nM | IC50 (HCT-116): 8.99 nM | IC50 (HRAS G12V): 13.6 nM | IC50 (HT-1080): 5.39 nM | fraction unbound at 4 h, 2 µM [1]: 0.026 | IC50 (T24): 13.2 nM | IC50 (KRAS G12V; IC50 (nM) KRAS G12V, NanoBiT, HeLa cells, 2 h in serum-free DMEM): 16.5 nM | IC50 (KRAS G12V; [2]): 8.5 nM
